Values after ≈ are worked out from the molar mass of the structure shown. Like-named read-outs stand apart in the source and are kept apart here.
Tests used:
[1] = tested on: mitochondrial ribosome (human chimeric); format: biochemical
Source text: (§1) The antiribosomal activity of these compounds was investigated with cell-free translation assays using both wild type bacterial ribosomes and hybrid ribosomes carrying eukaryotic decoding A sites enabling the prediction of selectivity.

[2] = tested on: cytosolic ribosome (human chimeric); format: biochemical
Source text: as §1

[3] = tested on: wild type bacterial ribosomes; assay: in-vitro translation assay, bacterial ribosomes; format: biochemical
Source text: as §1

E coli wild type = assay: MIC by broth microdilution, wild type E coli; format: cell-based; conditions: for MIC AG001 E. coli WT: clinical isolate AG001, WT; for MIC AG055 E. coli WT: clinical isolate AG055, WT
P aeruginosa = assay: MIC by broth microdilution, P aeruginosa isolates; format: cell-based, Pseudomonas aeruginosa; conditions: for MIC AG031 P. aer. APH(3′)-II: clinical isolate AG031, APH(3′)-II; for MIC AG032 P. aer. APH(3′)-II: clinical isolate AG032, APH(3′)-II
[4] = tested on: A1555G mutant mitochondrial ribosome (human chimeric); assay: in-vitro translation assay, human chimeric ribosomes, A1555G mutant mitochondrial decoding site; format: biochemical; conditions: human mitochondrial decoding site with A1555G point mutation; read-out: IC50 Mitoch. A1555G
Source text: as §1

[5] = tested on: rabbit reticulocyte ribosomes; assay: in-vitro translation assay, rabbit reticulocyte ribosomes; format: biochemical; conditions: mammalian cytosolic ribosomes (rabbit)
[6] = tested on: E coli carrying specific resistance determinants; assay: MIC by broth microdilution, E coli carrying specific resistance determinants; format: cell-based; conditions: for MIC AG003 E. coli AAC(3)-II: clinical isolate AG003, AAC(3)-II
MRSA = assay: MIC by broth microdilution, MRSA isolates; format: cell-based; conditions: for MIC AG038 MRSA: clinical isolate AG038; for MIC AG039 MRSA AAC(6′)-I ANT(4′)-I: clinical isolate AG039, AAC(6′)-I ANT(4′)-I; for MIC AG042 MRSA AAC(6′)-I ANT(4′)-I APH(2′): clinical isolate AG042, AAC(6′)-I ANT(4′)-I APH(2′); for MIC AG044 MRSA: clinical isolate AG044
[7] = tested on: Enterobacter cloacae AG290; assay: MIC by broth microdilution, Enterobacter cloacae; format: cell-based; conditions: strain AG290 Enterobacter cloacae
[8] = tested on: Klebsiella pneumonia AG215; assay: MIC by broth microdilution, Klebsiella pneumonia; format: cell-based; conditions: strain AG215 Klebsiella pneumonia
M. smegmatis SZ380 = assay: MIC by broth microdilution, M. smegmatis; conditions: strain SZ380 Mycobacterium smegmatis
[9] = tested on: Acinetobacter baumannii pittii AG225; assay: MIC by broth microdilution, Acinetobacter baumannii; format: cell-based; conditions: strain AG225 Acinetobacter baumannii pittii
[10] = ribosomes with a human mitochondrial decoding site, read-out: IC50 Mitoch.
[11] = ribosomes with a human cytosolic decoding site, read-out: IC50 Cytosolic
[12] = Mycobacterium smegmatis ribosomes, read-out: IC50 Bacterial

CC(O)C1OC(OC2C(N)CC(N)C(O)C2OC2OC(CO)C(OC3OC(CN)C(O)C(O)C3N)C2O)C(N)C(O)C1O (stereo not drawn) [DC156]
IC50 [1, 10]: 185 µM | Target specificity bacterial vs. Cytosolic ([2]; relative target specificity, bacterial vs. human cytosolic): low | IC50 [2, 11]: 2.6 µM | IC50 [3, 12]: 0.02 µM | MIC pH430 WT (E coli wild type; E. coli strain pH430, WT): 1 μg/ml | MIC AG001 E. coli WT (E coli wild type): 4 to 8 µg/mL | MIC AG055 E. coli WT (E coli wild type): 4 µg/mL (≈ 6.35 µM) | MIC AG031 P. aer. APH(3′)-II (P aeruginosa): >32 µg/mL | MIC AG032 P. aer. APH(3′)-II (P aeruginosa): >32 µg/mL | IC50 [4]: 8.4 µM | IC50 [5]: 5.4 µM | MIC AG036 ANT(4′,4′′) ([6]; E. coli strain AG036, ANT(4′,4′′)): 32 to 64 µg/mL | MIC AG037 APH(3′)-III ([6]; E. coli strain AG037, APH(3′)-III): >32 µg/mL | MIC AG103 armA ([6]; E. coli strain AG103, armA): 1 µg/mL (≈ 1.59 µM) | MIC pH414 AAC(6′)-I ([6]; E. coli strain pH414, AAC(6′)-I): 1 μg/ml | MIC pH415 AAC(6′)-II ([6]; E. coli strain pH415, AAC(6′)-II): 1 μg/ml | MIC pH421 APH(3)-I ([6]; E. coli strain pH421, APH(3)-I): >32 μg/ml | MIC pH422 APH(3′)-II ([6]; E. coli strain pH422, APH(3′)-II): >32 μg/ml | MIC pH423 APH(3′)-VI ([6]; E. coli strain pH423, APH(3′)-VI): >32 μg/ml | MIC pH432 ANT(4′) ([6]; E. coli strain pH432, ANT(4′)): 1 μg/ml | MIC AG003 E. coli AAC(3)-II [6]: 4 µg/mL (≈ 6.35 µM) | MIC AG038 MRSA (MRSA): 4 to 8 µg/mL | MIC AG039 MRSA AAC(6′)-I ANT(4′)-I (MRSA): >128 µg/mL | MIC AG042 MRSA AAC(6′)-I ANT(4′)-I APH(2′) (MRSA): >128 µg/mL | MIC AG044 MRSA (MRSA): 2 to 4 µg/mL

NC[C@@H]1O[C@H](O[C@H]2[C@@H](O)[C@H](O[C@@H]3[C@@H](O)[C@H](N)C[C@H](N)[C@H]3O[C@H]3O[C@H](CO)[C@@H](O)C[C@H]3N)O[C@@H]2CO)[C@H](N)[C@@H](O)[C@@H]1O [Lividomycin B, lividomycin B, reference compound]
MIC AG290 E. cloacae [7]: 2 µg/mL (≈ 3.34 µM) | MIC AG215 K. pneumon [8]: 2 µg/mL (≈ 3.34 µM) | IC50 ([1]; mitochondrial, Table 3 (Example 1), read-out: IC50 Mit): 109 µM | IC50 [1, 10]: 109 µM | IC50 ([2]; cytosolic, Table 3 (Example 1), read-out: IC50 Cyt): 53 µM | IC50 [2, 11]: 53 µM | IC50 [3, 12]: 0.04 µM | IC50 ([3]; bacterial ribosome, Table 3 (Example 1), read-out: IC50 Bac): 0.04 µM | MIC SZ380 M. smegmatis (M. smegmatis SZ380): 0.5 µg/mL (≈ 0.834 µM) | MIC E coli AG006 wt (E coli wild type; AG006 wt, Table 2 (Example 1)): 1 to 2 µg/mL | MIC E coli AG102 wt (E coli wild type; AG102 wt, Table 2 (Example 1)): 2 µg/mL (≈ 3.34 µM) | MIC E coli AG160 wt (E coli wild type; AG160 wt, Table 2 (Example 1)): 4 µg/mL (≈ 6.67 µM) | MIC WT (E coli wild type; WT, Table 3 (Example 1)): 2 µg/mL (≈ 3.34 µM) | MIC AG001 E. coli WT (E coli wild type): 4 µg/mL (≈ 6.67 µM) | MIC AG055 E. coli WT (E coli wild type): 2 µg/mL (≈ 3.34 µM) | MIC AG160 E. coli WT (E coli wild type; clinical isolate AG160 WT, Table 2 (Example 4)): 4 µg/mL (≈ 6.67 µM) | MIC pH430 E. coli WT (E coli wild type; engineered strain pH430 WT, Table 2 (Example 4)): 2 μg/ml | MIC50 E coli AG01 (E coli wild type; strain AG01, Table 1 (Example 1)): 16 µg/mL (≈ 26.7 µM) | MIC50 E coli AG03 (E coli wild type; strain AG03, Table 1 (Example 1)): 8 to 16 µg/mL | MIC50 E coli AG55 (E coli wild type; strain AG55, Table 1 (Example 1)): 16 µg/mL (≈ 26.7 µM) | MIC AG212 E. coli (E coli wild type; strain AG212 E. coli (ATCC25922)): 4 µg/mL (≈ 6.67 µM) | MIC AG031 P. aer. APH(3′)-II (P aeruginosa): 16 µg/mL (≈ 26.7 µM) | MIC AG032 P. aer. APH(3′)-II (P aeruginosa): >128 µg/mL | MIC50 P aeruginosa AG31 (P aeruginosa; strain AG31, Table 1 (Example 1)): 16 µg/mL (≈ 26.7 µM) | MIC50 P aeruginosa AG32 (P aeruginosa; strain AG32, Table 1 (Example 1)): >128 µg/mL | MIC50 P aeruginosa AG33 (P aeruginosa; strain AG33, Table 1 (Example 1)): 128 µg/mL (≈ 213 µM) | MIC50 P aeruginosa AG86 (P aeruginosa; strain AG86, Table 1 (Example 1)): 128 µg/mL (≈ 213 µM) | MIC AG220 P. aerugin (P aeruginosa; strain AG220 Pseudomonas aeruginosa ATCC27853): 4 µg/mL (≈ 6.67 µM) | IC50 [5]: 25 µM | MIC AG225 A. baumannii [9]: 4 µg/mL (≈ 6.67 µM) | MIC E coli AG007 ANT(3″) AAC(3)-I ([6]; AG007 ANT(3″) AAC(3)-I, Table 2 (Example 1)): 4 µg/mL (≈ 6.67 µM) | MIC E coli AG103 ArmA ([6]; AG103 ArmA, Table 2 (Example 1)): 16 µg/mL (≈ 26.7 µM) | MIC E coli AG163/164 APH(3′)-Ia ([6]; AG163/164 APH(3′)-Ia, Table 2 (Example 1)): >128 µg/mL | MIC E coli AG166 APH(3′)-IIa ([6]; AG166 APH(3′)-IIa, Table 2 (Example 1)): 4 to 8 µg/mL | MIC APH(3)-VI ([6]; APH(3)-VI, Table 3 (Example 1)): 2 µg/mL (≈ 3.34 µM) | MIC APH(3′)-I ([6]; APH(3′)-I, Table 3 (Example 1)): >64 µg/mL | MIC APH(3′)-II ([6]; APH(3′)-II, Table 3 (Example 1)): 2 µg/mL (≈ 3.34 µM) | MIC APH(3′)-III ([6]; APH(3′)-III, Table 3 (Example 1)): >64 µg/mL | MIC AG003 E. coli AAC(3)-II [6]: 4 µg/mL (≈ 6.67 µM) | MIC AG163 E. coli APH(3′)-I ([6]; clinical isolate AG163 APH(3′)-I, Table 2 (Example 4)): >128 µg/mL | MIC AG166 E. coli APH(3′)-II ([6]; clinical isolate AG166 APH(3′)-II, Table 2 (Example 4)): 4 to 8 µg/mL | MIC AG037 E. coli APH(3′)-III ([6]; engineered strain AG037 APH(3′)-III, Table 2 (Example 4)): >128 µg/mL | MIC pH421 E. coli APH(3′)-I ([6]; engineered strain pH421 APH(3′)-I, Table 2 (Example 4)): >64 μg/ml | MIC pH422 E. coli APH(3′)-II ([6]; engineered strain pH422 APH(3′)-II, Table 2 (Example 4)): 2 μg/ml | MIC pH423 E. coli APH(3′)-VI ([6]; engineered strain pH423 APH(3′)-VI, Table 2 (Example 4)): 2 μg/ml | MIC AG038 MRSA (MRSA): 4 µg/mL (≈ 6.67 µM) | MIC AG039 MRSA AAC(6′)-I ANT(4′)-I (MRSA): >128 µg/mL | MIC AG042 MRSA AAC(6′)-I ANT(4′)-I APH(2′) (MRSA): >128 µg/mL | MIC AG044 MRSA (MRSA): 4 to 8 µg/mL | MIC50 MRSA AG38 (MRSA; strain AG38, Table 1 (Example 1)): 4 µg/mL (≈ 6.67 µM) | MIC50 MRSA AG39 (MRSA; strain AG39, Table 1 (Example 1)): >128 µg/mL | MIC50 MRSA AG42 (MRSA; strain AG42, Table 1 (Example 1)): >128 µg/mL | MIC50 MRSA AG44 (MRSA; strain AG44, Table 1 (Example 1)): 4 to 8 µg/mL

From patent US11466044B2 (WAYNE STATE UNIVERSITY, priority 2017, dated 2022)
